Measured values as given in ChEMBL document CHEMBL1201862, “PubChem BioAssay data set” (2004).
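Tested at 5 concentrations; 48 h exposure; 96-well plates; endpoints linearly interpolated, else capped at highest concentration. GI50 = concentration required for 50% inhibition of growth.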 Active and inactive are the calls of the source. Cut-off read from the data, not from the text of the source: active = GI50 up to about 1.1 µM and inactive = higher.

What was measured:
Test in all cases: NCI-60 cell line screen, 48 h
[1] = tested on: A498
[2] = tested on: SNB-19
[3] = tested on: UACC-257
[4] = tested on: U-251
[5] = tested on: M14
[6] = tested on: EKVX
[7] = tested on: PC-3
[8] = tested on: HCT-15
[9] = tested on: COLO 205
[10] = tested on: NCI-H23
[11] = tested on: MCF7
[12] = tested on: NCI-H522
[13] = tested on: UACC-62
[14] = tested on: SK-OV-3
[15] = tested on: Malme-3M
[16] = tested on: Hs-578T
[17] = tested on: SK-MEL-28
[18] = tested on: SF-539
[19] = tested on: SK-MEL-5
[20] = tested on: OVCAR-5

Structure (SMILES)	GI50 [1]	GI50 [2]	GI50 [3]	GI50 [4]	GI50 [5]	GI50 [6]	GI50 [7]	GI50 [8] [µM]	GI50 [9]	GI50 [10]	GI50 [11]	GI50 [12]	GI50 [13]	GI50 [14]	GI50 [15]	GI50 [16]	GI50 [17]	GI50 [18]	GI50 [19]	GI50 [20]
CCOc1cccc(-c2cc(O)c3cc4c(cc3n2)OCO4)c1	78.9 µM (inactive)	0.321 µM (active)	1.95 µM (inactive)	0.0619 µM (active)	0.371 µM (active)	10.5 µM (inactive)	0.112 µM (active)	0.189	0.206 µM (active)	0.396 µM (active)	0.673 µM (active)	0.0914 µM (active)	0.043 µM (active)	0.166 µM (active)	0.141 µM (active)	0.163 µM (active)	1.66 µM (inactive)	0.13 µM (active)	0.0505 µM (active)	
OCC1NCC(O)C(O)C1O (configuration not stated)	> 100 µM (inactive)	> 100 µM (inactive)	> 100 µM (inactive)	> 100 µM (inactive)	> 100 µM (inactive)	> 100 µM (inactive)	> 100 µM (inactive)	> 100	> 100 µM (inactive)	> 100 µM (inactive)	> 100 µM (inactive)	> 100 µM (inactive)	> 100 µM (inactive)	> 100 µM (inactive)	22.4 µM (inactive)	> 100 µM (inactive)	> 100 µM (inactive)	> 100 µM (inactive)	> 100 µM (inactive)	> 100 µM (inactive)
COc1cc(C2c3cc4c(cc3OC(N3CCCCC3)C2C)OCO4)cc(OC)c1O (configuration not stated)	10.9 µM (inactive)	16.3 µM (inactive)	13.4 µM (inactive)	9.71 µM (inactive)	9.42 µM (inactive)	26.1 µM (inactive)	7.91 µM (inactive)	11.6	17.7 µM (inactive)	18.7 µM (inactive)	5.33 µM (inactive)	3.67 µM (inactive)	4.23 µM (inactive)	5.89 µM (inactive)	4.36 µM (inactive)	7.53 µM (inactive)	9.89 µM (inactive)	9.64 µM (inactive)	5.7 µM (inactive)	20.1 µM (inactive)
O=C1CC2C(=O)c3ccccc3CC2c2ccccc21 (configuration not stated)	48.8 µM (inactive)	> 100 µM (inactive)	24.8 µM (inactive)	57.4 µM (inactive)	69.5 µM (inactive)	46.1 µM (inactive)	43 µM (inactive)	24.3			37.2 µM (inactive)	57.4 µM (inactive)	35.7 µM (inactive)	> 100 µM (inactive)	39 µM (inactive)	> 100 µM (inactive)	70.6 µM (inactive)	32.7 µM (inactive)		> 100 µM (inactive)
NC(Cc1ccc2oc3cc(=O)c4ccccc4c-3nc2c1)C(=O)O (configuration not stated)	70.6 µM (inactive)	22.3 µM (inactive)	20.5 µM (inactive)	26.2 µM (inactive)	12.5 µM (inactive)	> 83.4 µM (inactive)	> 83 µM (inactive)	17.8	6.97 µM (inactive)	4.31 µM (inactive)	2.86 µM (inactive)	39.8 µM (inactive)	11.7 µM (inactive)	> 100 µM (inactive)	6.52 µM (inactive)	11.7 µM (inactive)	25.8 µM (inactive)	20.3 µM (inactive)	4.92 µM (inactive)	66.7 µM (inactive)
CC(C)(C)C(=O)C(C(=O)c1ccccc1)C(=O)C(C)(C)C	> 100 µM (inactive)	> 100 µM (inactive)	> 100 µM (inactive)	> 100 µM (inactive)	> 100 µM (inactive)	> 100 µM (inactive)	> 100 µM (inactive)	> 100	> 100 µM (inactive)	> 100 µM (inactive)	> 100 µM (inactive)	> 100 µM (inactive)		> 100 µM (inactive)	> 100 µM (inactive)	> 100 µM (inactive)	> 100 µM (inactive)	> 100 µM (inactive)	> 100 µM (inactive)	> 100 µM (inactive)
CCNC(=O)C1CCCN1C(=O)C(CCCN=C(N)N)NC(=O)C(CC(C)C)NC(=O)C(Cc1c[nH]c2ccccc12)NC(=O)C(Cc1ccc(O)cc1)NC(=O)C(CO)NC(=O)C(Cc1c[nH]c2ccccc12)NC(=O)C(Cc1c[nH]cn1)NC(=O)C1CCC(=O)N1 (configuration not stated)	> 100 µM (inactive)	> 100 µM (inactive)	> 100 µM (inactive)	> 100 µM (inactive)	> 100 µM (inactive)	> 100 µM (inactive)	> 100 µM (inactive)	> 100	> 100 µM (inactive)	> 100 µM (inactive)	> 100 µM (inactive)	> 100 µM (inactive)	> 100 µM (inactive)	> 100 µM (inactive)	> 100 µM (inactive)	> 100 µM (inactive)		> 100 µM (inactive)	> 100 µM (inactive)	> 100 µM (inactive)
O=C(CN1CCN(Cc2ccccc2)CC1)N1CCCn2c1nc1ccccc1c2=O	> 100 µM (inactive)	> 100 µM (inactive)	> 100 µM (inactive)	> 100 µM (inactive)	> 100 µM (inactive)	> 100 µM (inactive)	> 100 µM (inactive)	> 100	> 100 µM (inactive)	> 100 µM (inactive)	> 100 µM (inactive)	> 100 µM (inactive)	> 100 µM (inactive)	> 100 µM (inactive)	> 100 µM (inactive)	> 100 µM (inactive)		> 100 µM (inactive)	> 100 µM (inactive)	> 100 µM (inactive)
CN(C)CCCNC(=O)c1cc(NC(=O)c2cc(NC(=O)CCCn3c4ccccc4c4ccccc43)cn2C)cn1C	19.3 µM (inactive)	10.5 µM (inactive)	15.9 µM (inactive)	11.4 µM (inactive)	4.41 µM (inactive)	15.3 µM (inactive)	19.2 µM (inactive)	28.1	2.15 µM (inactive)	14.8 µM (inactive)	5.89 µM (inactive)	14.2 µM (inactive)		12 µM (inactive)	6.03 µM (inactive)	15.5 µM (inactive)	21.6 µM (inactive)	20.4 µM (inactive)	5.81 µM (inactive)	20.1 µM (inactive)
C=C[C@@H]1C[C@]2(C(=O)OC)Cc3nc4ccccc4nc3CC(C(=O)OC)=C2O1	> 100 µM (inactive)	> 100 µM (inactive)	76.7 µM (inactive)	92.7 µM (inactive)	80.7 µM (inactive)	> 100 µM (inactive)	62.4 µM (inactive)	57.1	35.2 µM (inactive)	69.8 µM (inactive)	40.6 µM (inactive)	64.6 µM (inactive)	> 100 µM (inactive)	> 100 µM (inactive)	> 100 µM (inactive)	> 100 µM (inactive)	53.8 µM (inactive)	> 100 µM (inactive)	78.9 µM (inactive)	> 100 µM (inactive)
CCCCCCCCCCCCOC1C(COCCN2CCCCC2)OC2OC(C)(C)OC21 (configuration not stated)	14.8 µM (inactive)	2.5 µM (inactive)	1.74 µM (inactive)	2.02 µM (inactive)	1.63 µM (inactive)		1.75 µM (inactive)	1.79	1.66 µM (inactive)	2.47 µM (inactive)	1.73 µM (inactive)	1.59 µM (inactive)	1.84 µM (inactive)	4.08 µM (inactive)	1.86 µM (inactive)	2 µM (inactive)	1.82 µM (inactive)	1.76 µM (inactive)	1.58 µM (inactive)	1.85 µM (inactive)
CC(=O)OCC1OC(N2C(=O)/C(=C\c3ccc(Cl)cc3)C(N)=Nc3ccccc32)C(OC(C)=O)C(OC(C)=O)C1OC(C)=O (configuration not stated)	44.6 µM (inactive)	37.8 µM (inactive)	23.4 µM (inactive)	14.6 µM (inactive)	20.2 µM (inactive)	29.2 µM (inactive)	20.6 µM (inactive)	23	12.1 µM (inactive)	25.9 µM (inactive)	11.8 µM (inactive)		29.4 µM (inactive)	51.1 µM (inactive)	28.2 µM (inactive)	28.4 µM (inactive)	26.1 µM (inactive)	10.1 µM (inactive)	12.7 µM (inactive)	33.4 µM (inactive)
CN(/N=C(\C(=O)O)c1ccccc1)C1=NCCCCN1	> 100 µM (inactive)		> 100 µM (inactive)	> 100 µM (inactive)		> 100 µM (inactive)	> 100 µM (inactive)	> 100	> 100 µM (inactive)	> 100 µM (inactive)	> 100 µM (inactive)	> 100 µM (inactive)	> 100 µM (inactive)	> 100 µM (inactive)	> 100 µM (inactive)	> 100 µM (inactive)	> 100 µM (inactive)	> 100 µM (inactive)	> 100 µM (inactive)	> 100 µM (inactive)
CCCCON1C[C@H](OC(C)=O)C(OC(C)=O)[C@H](OC(C)=O)C1 (some centres not stated)	> 100 µM (inactive)	> 100 µM (inactive)	> 100 µM (inactive)	> 100 µM (inactive)	> 100 µM (inactive)	> 100 µM (inactive)	> 100 µM (inactive)	> 100	> 100 µM (inactive)	> 100 µM (inactive)	> 100 µM (inactive)	> 100 µM (inactive)	> 100 µM (inactive)	> 100 µM (inactive)	> 100 µM (inactive)	> 100 µM (inactive)	> 100 µM (inactive)	> 100 µM (inactive)	> 100 µM (inactive)	
